Ends that are not written are not given here.
Legend:
Format in all cases: cell-based
[1] = system: LNCaP prostate cancer cell line; experiment: Cell proliferation rate assay in LNCaP cells; conditions: vs LNCaP cells cultured without peptide, 72 hours incubation (FIG. 1)
Text: (A) is a graphic presentation of the changes in the proliferation rate of the LNCaP prostate cancer cell line after exposure to GHRH antagonist JMR-132 and GHRH (1-29)NH2. Percentage increase or decrease are expressed vs LNCaP cells cultured in the absence of JMR-132 or GHRH (1-29)NH2*(P<0.05), **(P<0.005).
The rate of the cell proliferation […] microscope using the trypan blue assay or a Z series Coulter Counter (Beckman Coulter, Fullerton, Calif., USA). The data are expressed as the mean±SEM. Statistical evaluation of the results was performed by the Student's t test (two-tailed). P values shown are against the control group.
(§1) LNCaP prostate cancer cells were exposed to two concentrations of GHRH(1-29)NH2 and JMR-132. […] However, GHRH (1-29)NH2 at 0.1 μM concentration stimulated the proliferation rate of LNCaP cells by 13%. GHRH antagonist JMR-132 at the doses of 0.1 μM and 1 μM decreased the proliferation of LNCaP prostate cancer cell line by 32% and 37% respectively. In addition, the expression levels of the PCNA (M.W: 36 KDa) were evaluated by Western Blot. The PCNA protein expression was increased in the cells exposed to 0.1 μM and 1 μM of GHRH (1-29)NH2 (R.I: 0.77 and 0.925 respectively) and decreased in the cells that incubated with 0.1 μM of GHRH antagonist JMR-132. (R.I: 0.495) as compared to control (R.I: 0.656).

[2] = system: Proliferating Cell Nuclear Antigen (PCNA); experiment: Western Blot of PCNA expression in LNCaP cells; conditions: control R.I: 0.656
Protocol: (B) is a Western Blot analysis of expression of the Proliferating Cell Nuclear Antigen (PCNA) in LNCaP prostate cancer cell line after exposure to GHRH antagonist JMR-132, and GHRH(1-29)NH2 n=2.
(§2) Prostate cancer cells LNCaP and breast cancer cells MCF-7 were obtained from American Type Culture Collection (Manassas, Va.) and were cultured as described previously. The antibodies that detect P53, PCNA, GPX1, SOD1, NQ01, Thioredoxin 1, COX2 and COX IV were purchased from Cell Signalling (Danvers, Mass.). The antibodies that detect β actin, NFκB50, pNFκB50, caspase 3 and its cleaved form were purchased from Santa Cruz Biotechnology (Santa Cruz, Calif.). The antibodies against GHRH-R (batch number: SV95) and SV1 (batch number: JH 2317/5) were raised in our laboratory. The signals for the immunoreactive proteins were visualized in a Chemi Doc XRS system (Biorad, Hercules, Calif.). The western Blot assay as well the quantification analysis of the blots was performed as described previously.
as §1

[3] = system: wild-type p53 tumor suppressor protein; experiment: Western Blot of wild-type p53 expression in LNCaP cells; conditions: 72 hour exposure, control R.I: 0.436
Protocol: as §2
LNCaP prostate cancer cell line cultured in vitro was exposed to two concentrations of JMR-132 and GHRH(1-29)NH2 and the expression level of the p53 tumor suppressor protein (M.W: 53 KDa) was measured by Western Blot. The p53 protein expression was higher in the cells exposed to 0.1 μM and 1 μM GHRH antagonist JMR-132 (R.I: 0.583 and 0.658 respectively) and lower in the cells incubated with 0.1 μM and 1 μM GHRH (1-29)NH2 (R.I: 0.376 and 0.264 respectively) as compared to control (R.I: 0.436)

[4] = system: phosphorylated NFκB p50; experiment: Western Blot of phosphorylated NFκB p50 in LNCaP cells; conditions: 1 μM, 72 hours, control R.I: 0.521
Protocol: (§3) (A): is a Western Blot analysis of expression of the phosphorylated NFκB p50, caspase 3 protein and its cleaved form in LNCaP prostate cancer cell line after exposure to GHRH antagonist JMR-132 and GHRH (1-29)NH2. n=2
as §2
(§4) LNCaP cells cultured in vitro were exposed to 1 μM GHRH antagonist JMR-132 and 1 μM GHRH(1-29)NH2. The expression levels of NFκB p50, the phosphorylated NFκB p50, caspase 3 (M.W: 35 KDa) and the cleaved caspase 3 were detected by Western Blot. […]

[5] = system: caspase 3; experiment: Western Blot of caspase 3 in LNCaP cells; conditions: 1 μM, 72 hours, control R.I: 0.108
Protocol: as §3, §2, §4

[6] = system: cleaved caspase 3; experiment: Western Blot of cleaved caspase 3 in LNCaP cells; conditions: 1 μM, 72 hours, control R.I: 0.320
Protocol: as §3, §2, §4

[7] = system: NFκB p50; experiment: Western Blot of NFκB p50 in LNCaP cells; conditions: 1 μM, 72 hours
Protocol: (B): is a Western Blot analysis of expression of the NFκB p50. n=2
as §2, §4

[8] = system: GPX1; experiment: Western Blot of GPX1 in LNCaP cells; conditions: 1 μM, 72 hour exposure, control R.I: 0.107
Protocol: (§5) FIG. 7: is a Western Blot analysis of expression of the antioxidant enzymes TRX1, NQ01, GPX1 and SOD1 in LNCaP prostate cancer cell line after 72 hour exposure to GHRH antagonist JMR-132 and GHRH(1-29)NH2 n=2.
as §2
(§6) LNCaP prostate cancer cell line cultured in vitro was exposed to 1 μM JMR-132 and GHRH(1-29)NH2. The expression levels of the detoxifying enzymes were measured by Western Blot. The GPX1 (M.W: 22 Kda) protein expression was higher in the cells exposed to GHRH (1-29)NH2 (R.I: 0.126) and lower in the cells incubated with GHRH antagonist JMR-132 (R.I: 0.035), as compared to control (R.I:0.107). […]

[9] = system: SOD1; experiment: Western Blot of SOD1 in LNCaP cells; conditions: 1 μM, 72 hour exposure, only detectable with GHRH (1-29)NH2
Protocol: as §5, §2, §6

[10] = system: NQ01; experiment: Western Blot of NQ01 in LNCaP cells; conditions: 1 μM, 72 hour exposure, control R.I: 0.175
Protocol: as §5, §2, §6

[11] = system: thioredoxin 1; experiment: Western Blot of thioredoxin 1 in LNCaP cells; conditions: 1 μM, 72 hour exposure, control R.I: 0.210
Protocol: as §5, §2, §6

[12] = system: COX 2; experiment: Western Blot of COX 2 in LNCaP cells; conditions: 1 μM, 72 hour incubation, control R.I: 0.822
Protocol: (§7) FIG. 4: is a Western Blot analysis of expression of the enzyme COX2 and COXIV enzymes in LNCaP prostate cancer cell line after 72 hour incubation with GHRH antagonist JMR-132 and GHRH(1-29)NH2. n=2
as §2
(§8) After LNCaP prostate cancer cells cultured in vitro were exposed to 1 μM GHRH antagonist JMR-132 and GHRH(1-29)NH2, the expression levels of the enzymes COX 2 and COX IV were measured by Western Blot. […]

[13] = system: COX IV; experiment: Western Blot of COX IV in LNCaP cells; conditions: 1 μM, 72 hour incubation, control R.I: 0.139
Protocol: as §7, §2, §8

[14] = system: N-nitrotyrosine; experiment: Protein oxidation: nitrotyrosine immunoblot in LNCaP cells; conditions: 1 μM, 72 hour, control R.I: 2.903
Protocol: (§9) The detection of the carbonyl groups, the nitrotyrosine and the lipid peroxidation was performed with the Oxiselect Protein carbonyl Immunoblot, the Oxiselect Nitrotyrosine Immunoblot Kit and the Oxiselect Malondialdehyde Immunoblot Kit respectively (Cell Biolabs, San Diego, Calif.) according the manufacturer s instructions. The detection of the lipid peroxidation using a primary rabbit anti-MDA antibody (Cell Biolabs, San Diego, Calif.) according the manufacturer' instructions. The β-actin signal was used as control.
(§10) LNCaP prostate cancer cell line cultured in vitro were exposed to 1 μM JMR-132 or 1 μM GHRH(1-29)NH2. The levels of the oxidation of the proteins were determined by the detection of the N-nitrotyrosine and the protein carbonyl groups. Both were elevated in the cells exposed to GHRH (1-29)NH2 (R.I: 3.282, 7.415) and decreased in the cells incubated with GHRH antagonist JMR-132 (R.I: 1.251, 4.275), as compared to control (R.I: 2.903, 5.846). The levels of the lipid peroxidation, determined by the detection of the malondialdehyde (MDA), were increased in cells exposed to GHRH (1-29)NH2 (R.I:4.89) and decreased in cells incubated with GHRH antagonist JMR-132 (R.I: 2.973) as compared to control (R.I: 4.433). […]

[15] = system: protein carbonyl groups; experiment: Protein oxidation: protein carbonyl immunoblot in LNCaP cells; conditions: 1 μM, 72 hour, control R.I: 5.846
Protocol: as §9, §10

[16] = system: malondialdehyde (MDA); experiment: Lipid peroxidation: malondialdehyde immunoblot in LNCaP cells; conditions: 1 μM, 72 hour, control R.I: 4.433
Protocol: as §9, §10

[17] = system: reactive oxygen species; experiment: Intracellular generation of reactive oxygen species (aminophenyl fluorescein) in LNCaP cells; conditions: 10^−6 M, 30 minutes at 37° C.
Protocol: Percentage increase or decrease are expressed vs LNCaP cells cultured in the absence of JMR-132 or GHRH (1-29)NH2. *** (P<0.005).
The detection of the Reactive Oxygen Species was carried out using aminophenyl fluorescein, an indicator for the highly reactive oxygen species (Invitrogen, Carlsbad, Calif., USA). This fluorescein derivative is non fluorescent until it reacts with the hydroxyl radical, peroxynitrite anion or hypochlorite anion. […] LNCaP prostate cancer cells were seeded in 200 μl of RPMI 1640 containing 10 μM aminophenyl fluorescein at a density of 10^3 cells/well onto a 48-well plate and were incubated for 30 minutes at 37° C. with GHRH (1-29)NH2 or JMR-132 at a concentration of 10^−6 M. The fluorescence was measured using a fluorescence plate reader (VICTOR^3 Multilabel Plate Reader, Perkin Elmer, Shelton, Conn., USA) with an excitation wavelength of 490 nm and an emission wavelength of 515 nm.
LNCaP prostate cancer cell line cultured in vitro were exposed to 1 μM JMR-132 or 1 μM GHRH(1-29)NH2. The levels of the oxidation of the proteins were determined by the detection of the N-nitrotyrosine and the protein carbonyl groups. Both were elevated in the cells exposed to GHRH (1-29)NH2 (R.I: 3.282, 7.415) and decreased in the cells incubated with GHRH antagonist JMR-132 (R.I: 1.251, 4.275), as compared to control (R.I: 2.903, 5.846). […]

Substance	PCNA protein expression (R.I) ([2]; 0.1 μM)	p53 protein expression (R.I) ([3]; 0.1 μM)	p53 protein expression (R.I) ([3]; 1 μM)	expression of the phosphorylated NFκB (R.I) [4]	expression of caspase 3 protein (R.I) [5]	expression of cleaved caspase 3 (R.I) [6]	expression of the NFκB (R.I), not influenced [7]	GPX1 protein expression (R.I) [8]	NQ01 protein expression (R.I) [10]	levels of the thioredoxin 1 protein (R.I) [11]	COX 2 protein expression (R.I) [12]	COX IV protein expression (R.I) [13]	N-nitrotyrosine level, protein oxidation (R.I) [14]	protein carbonyl groups level, protein oxidation (R.I) [15]	lipid peroxidation, malondialdehyde (MDA) (R.I) [16]	other results
GHRH(1-29)NH2 (YADAIFTNSYRKVLGQLSARKLLQDIMSR-NH2; UniProt P01286 32-60, looked up, fragment) [Growth Hormone-Releasing Hormone (1-29) amide, agonist peptide used for comparison with the antagonist]	0.77	0.376	0.264	0.623	0.083	0.182	0.766	0.126	0.196	0.277	0.928	0.237	3.282	7.415	4.89	increase (stimulation) of the proliferation rate of LNCaP cells ([1]; 0.1 μM): 13%; increase of the proliferation rate of LNCaP cells ([1]; 1 μM): 7%; PCNA protein expression (R.I) ([2]; 1 μM): 0.925; SOD1 protein expression (R.I) [9]: 0.111; generation of the reactive oxygen species, higher than control [17]: 36%
[PhAc^0-Tyr^1, D-Arg^2, Cpa^6, Ala^8, Har^9, Tyr(Me)^10, His^11, Abu^15, His^20, Nle^27, D-Arg^28, Har^29]hGH-RH(1-29)NH2 [JMR-132]	0.495	0.583	0.658	0.451	0.120	0.391	0.786	0.035	0.025	0.196	0.532	0.077	1.251	4.275	2.973	decrease of the proliferation of LNCaP prostate cancer cell line ([1]; 0.1 μM): 32%; decrease of the proliferation of LNCaP prostate cancer cell line ([1]; 1 μM): 37%; generation of the reactive oxygen species, lower than control [17]: 23%
